Test results published in patent publication EP2931723B1, “NEW BICYCLIC COMPOUNDS AND THEIR USE AS ANTIBACTERIAL AGENTS AND -LACTAMASE INHIBITORS” (Fedora Pharmaceuticals Inc., priority 2012, dated 2014).

Columns and labels:
Test in all cases: MIC, antibacterial and synergistic activity
Format in all cases: cell-based
A. baumanii JMI 2659 = A. baumanii JMI 2659 (Ges-14 (Cpase)); for MIC Aztreonam + inhibitor: Aztreonam + inhibitor at 4 µg/mL; for MIC Ceftazidime + inhibitor: Ceftazidime + inhibitor at 4 µg/mL; for MIC Meropenem + inhibitor: Meropenem + inhibitor at 4 µg/mL; for MIC: Acinetobacter baumannii, JMI2659, substance alone, read-out: MIC
E. coli JMI 4080 = conditions: for MIC Aztreonam + inhibitor / MIC Ceftazidime + inhibitor / MIC Meropenem + inhibitor: E. coli JMI 4080 (Tem-10); for MIC Aztreonam + inhibitor: Aztreonam + inhibitor at 4 µg/mL; for MIC Ceftazidime + inhibitor: Ceftazidime + inhibitor at 4 µg/mL; for MIC Meropenem + inhibitor: Meropenem + inhibitor at 4 µg/mL; for MIC: Escherichia coli, JMI4080, E. coli JMI 4080 (Tem-10), substance alone
K. pneumo JMI 4106 = K. pneumo JMI 4106 (KPC-3, TEM-1, SHV-12, SHV-141); for MIC Aztreonam + inhibitor: Aztreonam + inhibitor at 4 µg/mL; for MIC Ceftazidime + inhibitor: Ceftazidime + inhibitor at 4 µg/mL; for MIC Meropenem + inhibitor: Meropenem + inhibitor at 4 µg/mL; for MIC: substance alone, read-out: MIC
K. pneumo JMI 2697 = K. pneumo JMI 2697 (IMP-4 (Cpase)); for MIC Aztreonam + inhibitor: Aztreonam + inhibitor at 4 µg/mL; for MIC Ceftazidime + inhibitor: Ceftazidime + inhibitor at 4 µg/mL; for MIC Meropenem + inhibitor: Meropenem + inhibitor at 4 µg/mL; for MIC: substance alone
Method: In the Tables 10 - 12, compounds herein disclosed were tested in combination with various antibiotics against metallo β-lactamase producing bacteria.

P. aerug JMI 149 = P. aerug JMI 149 (Bla+++D+); for MIC Aztreonam + inhibitor: Aztreonam + inhibitor at 4 µg/mL; for MIC Ceftazidime + inhibitor: Ceftazidime + inhibitor at 4 µg/mL; for MIC Meropenem + inhibitor: Meropenem + inhibitor at 4 µg/mL; for MIC: substance alone, read-out: MIC
K. pneumo JMI 4088 = K. pneumo JMI 4088 (KPC-3 (Cpase)); substance alone
P. aerug JMI 2686 = P. aerug JMI 2686 (KPC-2 (Cpase)); substance alone
E. coli JMI 10768 = E. coli JMI 10768 (CTX-M15 (Weak ESBL)); Meropenem + inhibitor at 4 µg/mL
E. coli JMI 11103 = conditions: for MIC Aztreonam + inhibitor / MIC Ceftazidime + inhibitor / MIC Meropenem + inhibitor: E. coli JMI 11103 (CTX-M15 (Intermediate ESBL)); for MIC Aztreonam + inhibitor: Aztreonam + inhibitor at 4 µg/mL; for MIC Ceftazidime + inhibitor: Ceftazidime + inhibitor at 4 µg/mL; for MIC Meropenem + inhibitor: Meropenem + inhibitor at 4 µg/mL; for MIC: Escherichia coli, JMI11103, E. coli JMI 11103 (CTX-M15 (Intermediate ESBL)), substance alone

Compound	MIC Aztreonam + inhibitor (A. baumanii JMI 2659) [µg/mL]	MIC Ceftazidime + inhibitor (A. baumanii JMI 2659) [µg/mL]	MIC Meropenem + inhibitor (A. baumanii JMI 2659) [µg/mL]	MIC (A. baumanii JMI 2659) [µg/mL]	MIC Aztreonam + inhibitor (E. coli JMI 4080) [µg/mL]	MIC Ceftazidime + inhibitor (E. coli JMI 4080) [µg/mL]	MIC Meropenem + inhibitor (E. coli JMI 4080) [µg/mL]	MIC (E. coli JMI 4080) [µg/mL]	MIC Aztreonam + inhibitor (K. pneumo JMI 4106) [µg/mL]	MIC Ceftazidime + inhibitor (K. pneumo JMI 4106) [µg/mL]	MIC Meropenem + inhibitor (K. pneumo JMI 4106) [µg/mL]	MIC (K. pneumo JMI 4106) [µg/mL]	MIC Aztreonam + inhibitor (K. pneumo JMI 2697) [µg/mL]	MIC Ceftazidime + inhibitor (K. pneumo JMI 2697) [µg/mL]	MIC Meropenem + inhibitor (K. pneumo JMI 2697) [µg/mL]	MIC (K. pneumo JMI 2697) [µg/mL]	MIC Aztreonam + inhibitor (P. aerug JMI 149) [µg/mL]	MIC Ceftazidime + inhibitor (P. aerug JMI 149) [µg/mL]	MIC Meropenem + inhibitor (P. aerug JMI 149) [µg/mL]	MIC (P. aerug JMI 149) [µg/mL]	other results
O=C(NNC(=O)[C@H]1CC[C@H]2CN1C(=O)N2OS(=O)(=O)O)C1CNC1 (stereo in doubt) [Ex. 9, (2R,5S)-N'-(azetidin-3-ylcarbonyl)-7-oxo-6-(sulfooxy)-1,6-diazabicyclo[3.2.1]octane-2-carbohydrazide]	>4	16	2	> 16	≤0.06	0.25	≤0.03	16	0.5	≤0.25	0.125	8	≤0.06	8	2	16	>4	16	0.5	16	MIC (K. pneumo JMI 4088): 16 µg/mL; MIC (P. aerug JMI 2686): 16 µg/mL; MIC Meropenem + inhibitor (E. coli JMI 10768): ≤0.03 µg/mL; MIC Aztreonam + inhibitor (E. coli JMI 11103): ≤0.06 µg/mL; MIC Ceftazidime + inhibitor (E. coli JMI 11103): ≤0.25 µg/mL; MIC Meropenem + inhibitor (E. coli JMI 11103): ≤0.03 µg/mL; MIC (E. coli JMI 11103): > 16 µg/mL
CCC(=O)NNC(=O)[C@@H]1CC[C@@H]2CN1C(=O)N2OS(=O)(=O)O [Ex. 8, (2S,5R)-7-oxo-N'-propanoyl-6-(sulfooxy)-1,6-diazabicyclo[3.2.1]octane-2-carbohydrazide]	>4	>16	>2	> 16	≤0.062	≤0.25	≤0.0312	4	≤0.062	≤0.25	≤0.0312	> 16	≤0.062	16	2	> 16	>4	>16	0.5	> 16	MIC (K. pneumo JMI 4088): > 16 µg/mL; MIC (P. aerug JMI 2686): > 16 µg/mL; MIC Meropenem + inhibitor (E. coli JMI 10768): ≤0.0312 µg/mL; MIC Aztreonam + inhibitor (E. coli JMI 11103): ≤0.062 µg/mL; MIC Ceftazidime + inhibitor (E. coli JMI 11103): ≤0.25 µg/mL; MIC Meropenem + inhibitor (E. coli JMI 11103): ≤0.0312 µg/mL; MIC (E. coli JMI 11103): > 16 µg/mL
O=C(NNC(=O)[C@H]1CC[C@H]2CN1C(=O)N2OS(=O)(=O)O)C1CC1 (stereo in doubt) [Ex. 7, (2R,5S)-N'-(cyclopropylcarbonyl)-7-oxo-6-(sulfooxy)-1,6-diazabicyclo[3.2.1]octane-2-carbohydrazide]	>4	>16	>2	> 16	≤0.062	≤0.25	≤0.0312	4	0.125	≤0.25	≤0.0312	16	≤0.062	16	2	> 16	>4	>16	>2	> 16	MIC (K. pneumo JMI 4088): > 16 µg/mL; MIC (P. aerug JMI 2686): > 16 µg/mL; MIC Meropenem + inhibitor (E. coli JMI 10768): ≤0.0312 µg/mL; MIC Aztreonam + inhibitor (E. coli JMI 11103): ≤0.062 µg/mL; MIC Ceftazidime + inhibitor (E. coli JMI 11103): ≤0.25 µg/mL; MIC Meropenem + inhibitor (E. coli JMI 11103): ≤0.0312 µg/mL; MIC (E. coli JMI 11103): 16 µg/mL
NCCONC(=O)[C@@H]1CC[C@@H]2CN1C(=O)N2OS(=O)(=O)O [Ex. 3, (2S,5R)-N-(2-Aminoethoxy)-7-oxo-6-(sulfooxy)-1,6-diazabicyclo[3.2.1]octane-2-carboxamide]	>4	>16	2	> 16	≤0.062	≤0.25	≤0.0312	2	≤0.062	≤0.25	≤0.0312	2	0.25	0.5	0.25	8	>4	4	0.25	> 16	MIC (K. pneumo JMI 4088): 2 µg/mL; MIC (P. aerug JMI 2686): > 16 µg/mL; MIC Meropenem + inhibitor (E. coli JMI 10768): 0.062 µg/mL; MIC Aztreonam + inhibitor (E. coli JMI 11103): 0.5 µg/mL; MIC Ceftazidime + inhibitor (E. coli JMI 11103): 0.5 µg/mL; MIC Meropenem + inhibitor (E. coli JMI 11103): 0.062 µg/mL; MIC (E. coli JMI 11103): 4 µg/mL
